Laboratory results published in PubChem BioAssay AID330 (DTP/NCI, 2004).
Values joined by “and” are separate entries in the source; they are usually repeats but may differ in a detail not shown here. Equal values may be shown once. Toxic doses and inconclusive results are not listed. Rule for the calls: active = survival T/C of 150% or more; inactive = T/C below 125% in these data. Square brackets hold non-standard residues; d marks the D form. Peptide text beside a SMILES is read from it. * marks the point of attachment. ξ: configuration not given here. Cbz = O=C(OCc1ccccc1)*; ξM = CSCCC(N)C(=O)O

Test system: P388 leukemia ip, CD2F1 mice, survival T/C
Test: NCI In Vivo Anticancer Drug Screen. Data for tumor model P388 Leukemia (intraperitoneal) in CD2F1 (CDF1) mice
Conditions: endpoint: median survival time, higher = longer survival
Summary of the method: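 Mice carrying the transplanted tumor received test compound or vehicle. Survival was recorded in each group, and the value is the treated-group measurement divided by that of the vehicle-treated control group.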

[1] = dose: 12.5 mg/kg/injection, schedule: Q01DX005 (ip), vehicle: saline with Tween-80
[2] = dose: 25.0 mg/kg/injection, schedule: Q01DX005 (ip), vehicle: saline with Tween-80
[3] = dose: 30.0 mg/kg/injection, schedule: Q01DX005 (ip), vehicle: saline with Tween-80
[4] = dose: 3.12 mg/kg/injection, schedule: Q01DX009 (ip), vehicle: saline with Tween-80
[5] = dose: 60.0 mg/kg/injection, schedule: Q01DX005 (ip), vehicle: saline with Tween-80
[6] = dose: 120.0 mg/kg/injection, schedule: Q01DX005 (ip), vehicle: saline with Tween-80
[7] = dose: 50.0 mg/kg/injection, schedule: Q01DX009 (ip), vehicle: Klucel (hydroxypropylcellulose) (HPC)
[8] = dose: 100.0 mg/kg/injection, schedule: Q01DX009 (ip), vehicle: Klucel (hydroxypropylcellulose) (HPC)
[9] = dose: 200.0 mg/kg/injection, schedule: Q01DX009 (ip), vehicle: Klucel (hydroxypropylcellulose) (HPC)
[10] = dose: 240.0 mg/kg/injection, schedule: Q01DX005 (ip), vehicle: saline with Tween-80
[11] = dose: 50.0 mg/kg/injection, schedule: Q01DX009 (ip), vehicle: saline with Tween-80
[12] = dose: 50.0 mg/kg/injection, schedule: Q01DX005 (ip), vehicle: Klucel (hydroxypropylcellulose) (HPC)
[13] = dose: 100.0 mg/kg/injection, schedule: Q01DX005 (ip), vehicle: Klucel (hydroxypropylcellulose) (HPC)
[14] = dose: 200.0 mg/kg/injection, schedule: Q01DX005 (ip), vehicle: Klucel (hydroxypropylcellulose) (HPC)
[15] = dose: 50.0 mg/kg/injection, schedule: Q01DX005 (ip), vehicle: saline with Tween-80
[16] = dose: 200.0 mg/kg/injection, schedule: Q01DX005 (ip), vehicle: saline with Tween-80

Measured: T/C

Cn1c(COc2ccc(/C=N\N/C(N)=N/N=C/c3ccc(OCc4c[n+]5ccccc5n4C)cc3)cc2)c[n+]2ccccc12
inactive: [1] 110 % of control | [2] 112 % of control

C[C@]12CC[C@H](O)C[C@@]1(O)CC[C@@H]1[C@@H]2CC[C@]2(C)[C@@H](c3ccc(=O)oc3)C[C@H]3O[C@]132
inactive: dose: 1.25 mg/kg/injection, schedule: Q01DX005 (ip), vehicle: saline + alcohol 107 % of control | dose: 2.5 mg/kg/injection, schedule: Q01DX005 (ip), vehicle: saline + alcohol 104 % of control | dose: 5.0 mg/kg/injection, schedule: Q01DX005 (ip), vehicle: saline + alcohol 116 % of control | dose: 10.0 mg/kg/injection, schedule: Q01DX005 (ip), vehicle: saline + alcohol 94 % of control

CCn1c(Cl)c(/C=C2/N=C(c3ccccc3)OC2=O)c2ccccc21
inactive: dose: 25.0 mg/kg/injection, schedule: Q01DX001 (ip), vehicle: saline with Tween-80 95 % of control | dose: 50.0 mg/kg/injection, schedule: Q01DX001 (ip), vehicle: saline with Tween-80 86 % of control | dose: 100.0 mg/kg/injection, schedule: Q01DX001 (ip), vehicle: Klucel (hydroxypropylcellulose) (HPC) 92 % of control | dose: 400.0 mg/kg/injection, schedule: Q01DX001 (ip), vehicle: Klucel (hydroxypropylcellulose) (HPC) 86 % of control

O=c1oc2ccccc2c(O)c1C(c1ccc2c(c1)OCO2)c1c(O)c2ccccc2oc1=O
inactive: dose: 15.0 mg/kg/injection, schedule: Q01DX005 (ip), vehicle: saline with Tween-80 98 % of control | [3] 96 % of control

CN(C)CCN1C(=O)c2cccc3cc([N+](=O)[O-])cc(c23)C1=O
inactive: dose: 0.78 mg/kg/injection, schedule: Q01DX009 (ip), vehicle: saline with Tween-80 101 % of control | [4] 117 % of control and 124 % of control

N#CC(C(=O)C(=O)Nc1ccc(Cl)c(Cl)c1)c1ccccc1 (configuration not stated)
inactive: [5] 100 % of control | [6] 99 % of control

N#CCCN(C(=O)Nc1ccccc1)c1ccccc1
inactive: [7] 103 % of control | [8] 107 % of control | [9] 107 % of control

Nc1cc2nnc(-c3ccccc3)c(-c3ccccc3)n2n1
inactive: dose: 25.0 mg/kg/injection, schedule: Q04DX002 (ip), vehicle: saline with Tween-80 91 % of control | dose: 50.0 mg/kg/injection, schedule: Q04DX002 (ip), vehicle: saline with Tween-80 86 % of control

COc1ccc(C2=NNC(=O)C3NC(=O)C(C#N)=C(C(=O)NN)C23c2ccc(OC)cc2)cc1 (configuration not stated)
inactive: [5] 99 % of control | [6] 91 % of control | [10] 89 % of control

Cn1cnc([N+](=O)[O-])c1N1CCN(c2ccccc2)CC1
inactive: dose: 100.0 mg/kg/injection, schedule: Q01DX001 (ip), vehicle: saline with Tween-80 97 % of control | dose: 200.0 mg/kg/injection, schedule: Q01DX001 (ip), vehicle: saline with Tween-80 93 % of control | dose: 400.0 mg/kg/injection, schedule: Q01DX001 (ip), vehicle: saline with Tween-80 94 % of control

CCN(CC)CCSC(=O)N1c2ccccc2Sc2ccc(Cl)cc21
inactive: [4] 96 % of control | dose: 6.25 mg/kg/injection, schedule: Q01DX009 (ip), vehicle: saline with Tween-80 104 % of control and 105 % of control | dose: 12.5 mg/kg/injection, schedule: Q01DX009 (ip), vehicle: saline with Tween-80 96 % of control | dose: 25.0 mg/kg/injection, schedule: Q01DX009 (ip), vehicle: saline with Tween-80 93 % of control | [11] 100 % of control

CC(C)c1nccn1Cc1c(Cl)cccc1Cl
inactive: [7] 102 % of control | [8] 95 % of control | [9] 96 % of control

C=C1C(=O)OC(C)(C)C1c1ccc(Cl)c(Cl)c1 (configuration not stated)
inactive: [7] 93 % of control | [8] 92 % of control | [9] 97 % of control

CCCCCCC(O)C/C=C\CCCCCCc1c(C(=O)OC)[nH]c(=S)[nH]c1=O (configuration not stated)
inactive: [5] 94 % of control | [6] 97 % of control

CCC(C)C(NC(=O)OCC1c2ccccc2-c2ccccc21)C(=O)O (configuration not stated)
inactive: [12] 100 % of control | [13] 100 % of control | [14] 104 % of control

CCOC(=O)C1=C(C(=O)c2ccccc2)C(c2cccc([N+](=O)[O-])c2)C(C(=O)c2ccccc2)=C(C(=O)OCC)N1
inactive: [3] 104 % of control | [5] 104 % of control | [6] 104 % of control | [10] 104 % of control

CSCCC(NC(=O)CNC(=O)CNC(=O)OCc1ccccc1)C(=O)O (stereo not drawn) (Cbz-Gly-Gly-[ξM]-OH)
inactive: [12] 95 % of control | [13] 98 % of control | [14] 98 % of control

Cc1[nH]nc2c(Cc3ccccc3)n[nH]c(=O)c12
inactive: [7] 102 % of control | [8] 104 % of control | [9] 112 % of control

CC(C(N)C(=O)NC(C(=O)O)C1OC(n2ccc(=O)[nH]c2=O)C(O)C1O)C(O)c1ccc(O)cn1 (configuration not stated)
inactive: dose: 25.0 mg/kg/injection, schedule: Q01DX005 (ip), vehicle: saline 100 % of control | dose: 50.0 mg/kg/injection, schedule: Q01DX005 (ip), vehicle: saline 103 % of control | dose: 100.0 mg/kg/injection, schedule: Q01DX005 (ip), vehicle: saline 100 % of control

C=CCCC(C)CC (configuration not stated)
inactive: [11] 105 % of control | dose: 100.0 mg/kg/injection, schedule: Q01DX009 (ip), vehicle: saline with Tween-80 103 % of control | dose: 200.0 mg/kg/injection, schedule: Q01DX009 (ip), vehicle: saline with Tween-80 100 % of control

Cc1ccc(-n2c(C)nc3c(c(C)c(C)n3-c3ccccc3)c2=N)cc1
inactive: dose: 6.25 mg/kg/injection, schedule: Q01DX005 (ip), vehicle: Klucel (hydroxypropylcellulose) (HPC) 90 % of control | dose: 12.5 mg/kg/injection, schedule: Q01DX005 (ip), vehicle: Klucel (hydroxypropylcellulose) (HPC) 100 % of control | dose: 25.0 mg/kg/injection, schedule: Q01DX005 (ip), vehicle: Klucel (hydroxypropylcellulose) (HPC) 98 % of control

CCOC(=O)c1sc2nc(CN3CCOCC3)[nH]c(=O)c2c1C
inactive: [15] 94 % of control | dose: 100.0 mg/kg/injection, schedule: Q01DX005 (ip), vehicle: saline with Tween-80 98 % of control | [16] 98 % of control

CN(C)c1ccc(C2(c3ccccc3)NNC(=O)c3ccccc32)cc1 (configuration not stated)
inactive: [1] 92 % of control | [2] 88 % of control | [15] 88 % of control | [16] 86 % of control

CN(C)P(=O)(OCC12C=C(OP(=O)(N(C)C)N(C)C)CC1(COP(=O)(N(C)C)N(C)C)C1CCC2C1)N(C)C (configuration not stated)
inactive: dose: 60.0 mg/kg/injection, schedule: Q01DX005 (ip), vehicle: saline 101 % of control | dose: 120.0 mg/kg/injection, schedule: Q01DX005 (ip), vehicle: saline 98 % of control | dose: 240.0 mg/kg/injection, schedule: Q01DX005 (ip), vehicle: saline 102 % of control
